The results in this text go back to patent US20190249166A1, “Antidote for Chondroitinase” (priority 2018, published 2019).

Assay [1] deals with intervertebral disc. Kind of assay: Disc height index (DHI) by Micro-CT after intradiscal injection in rabbits. The assay is classed as in vivo, New Zealand rabbits. The conditions noted are these: for DHI, with heparin / effect on DHI reduction caused by chondroitinase ABC: 0.35 mg heparin. The procedure: Being used as an antidote, the non-substrate GAG of the present invention is effective in vivo. In the case of chemonucleolysis by chondroitinase ABC, the enzyme is injected into the nucleus pulposus for partial digestion. The effective antidote will be able to inhibit the activity of chondroitinase ABC intradiscally, as well as the reduction of the size of the intervertebral disc. […] When comparing to the control animal, for which the intervertebral disc is injected with Chondroitinase ABC only, the reduction of the disc height can only be observed in the control animal. The detailed experimental result is illustrated in Example 6.
New Zealand rabbits weighing 2.5-3.0 kg were divided into two groups: (1) injection of Chondroitinase ABC (0.05 U and 0.15 U) and heparin (0.35 mg); and (2) injection of chondroitinase ABC (0.05 U and 0.15 U). Before injection of chondroitinase ABC with or without heparin, rabbits were fixed in the dorsal position and anesthetized by 10% chloral hydrate (1 ml/kg). The intervertebral disc (IVD) was located by means of portable x-ray fluoroscope and the injection of the chondroitinase ABC with or without heparin was under fluoroscopic guidance. Rabbits were sacrificed just after the injection and 3 weeks after of injection for collecting the spine. The disc height index (DHI) analyzed by using LaTheta™ Micro-CT scanners (Hitachi-Aloka) at a resolution of 48 um (FIG. 7) and is listed in Table 2.

In assay [2] the test system is intervertebral disc. Described as above. The assay is classed as in vivo, New Zealand rabbits. The conditions noted are these: IVD injected with 0.05 U and 0.15 U chondroitinase ABC only.
The target of assay [3] is T1, chondroitinase ABC (Proteus vulgaris, UniProt P59807).
T1 sequence (P59807 25-1021): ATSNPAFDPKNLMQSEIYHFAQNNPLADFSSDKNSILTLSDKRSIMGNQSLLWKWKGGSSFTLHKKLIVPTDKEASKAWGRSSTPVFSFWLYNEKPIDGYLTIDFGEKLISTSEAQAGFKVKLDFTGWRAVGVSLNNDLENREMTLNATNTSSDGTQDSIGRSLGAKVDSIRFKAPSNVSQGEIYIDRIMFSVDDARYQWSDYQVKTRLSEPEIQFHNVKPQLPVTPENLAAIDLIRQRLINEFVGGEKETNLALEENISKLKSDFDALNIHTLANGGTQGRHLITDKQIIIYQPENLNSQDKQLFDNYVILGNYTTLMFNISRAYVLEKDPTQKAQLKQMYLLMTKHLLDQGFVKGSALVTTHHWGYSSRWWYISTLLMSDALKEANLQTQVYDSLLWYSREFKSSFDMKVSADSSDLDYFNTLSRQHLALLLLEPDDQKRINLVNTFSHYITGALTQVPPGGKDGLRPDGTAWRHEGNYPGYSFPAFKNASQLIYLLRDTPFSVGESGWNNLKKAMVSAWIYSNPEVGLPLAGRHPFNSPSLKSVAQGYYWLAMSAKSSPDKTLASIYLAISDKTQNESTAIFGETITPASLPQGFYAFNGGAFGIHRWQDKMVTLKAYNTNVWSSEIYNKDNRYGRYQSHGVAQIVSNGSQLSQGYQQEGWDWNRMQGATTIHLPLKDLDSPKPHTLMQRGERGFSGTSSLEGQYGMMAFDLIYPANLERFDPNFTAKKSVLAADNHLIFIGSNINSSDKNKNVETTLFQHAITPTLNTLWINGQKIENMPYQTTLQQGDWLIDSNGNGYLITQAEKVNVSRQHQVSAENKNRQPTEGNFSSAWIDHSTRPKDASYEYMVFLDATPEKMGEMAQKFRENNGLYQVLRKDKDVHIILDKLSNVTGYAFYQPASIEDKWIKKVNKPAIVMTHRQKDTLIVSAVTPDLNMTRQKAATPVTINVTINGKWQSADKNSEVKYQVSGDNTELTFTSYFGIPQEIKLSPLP
Kind of assay: Disc dissolution assay with bovine tail nucleus pulposus, absorbance at 232 nm. The assay is classed as biochemical. An excerpt: In the case of using chondroitinase as a chemonucleolysis agent, the site of injection is a gel-like nucleus pulposus which is dense with chondroitin sulfate, collagen, and the other extra-cellular matrix. To evaluate the effect of these matrices on the inhibition, a disc dissolution assay can be conducted. In the experiment, the nucleus pulposus, of which chondroitin sulfate is composed of 65% dry weight, are collected from bovine tails. […]
Introducing the non-substrate GAG, e.g. heparin, into the solution together with the chondroitinase, results in suppression of the release of chondroitin sulfate tetrasaccharide and/or disaccharide from the nucleus pulposus sample, is therefore a strong indication of the inhibitory and antidote effect on the enzyme. This inhibition of tetrasaccharide/disaccharide release is reflected by the reduction of the absorbance at 232 nm when compared with the buffer solution in the presence chondroitinase only. […]
In disc dissolution assay, 6 intervertebral discs were obtained from a bovine tail. […] The absorbance at 232 nm of each solution was measured at 0 hours, 5 hours, and 20 hours after the immersion of the nucleus pulposus. The increase in absorbance was predominantly due to the dissolution of the small-molecule-containing unsaturated carbon-carbon double bond from the nucleus pulposus. […]

Assay [4] addresses T1, chondroitinase ABC. Description: Chondroitinase enzyme inhibition assay, absorbance at 232 nm with chondroitin sulfate C. The assay is classed as biochemical. The conditions noted are these: 0.0125 mg/ml heparin; 0.01 U/ml chondroitinase ABC; 0.1 mg/ml chondroitin sulfate C; 37° C., 20 min. As for the experimental part: Freeze-dried chondroitinase is reconstituted in 0.1-10 mg/ml BSA solution, preferably 1 mg/ml. The chondroitinase solution is serially diluted into a final concentration in the range of 0.065-0.35 U/ml, and more preferably 0.260-0.175 U/ml. Chondroitin sulfate C is dissolved in a buffer at pH 7.0-9.0, preferably at pH 8.0±0.1 with Tris-HCl, sodium phosphate, sodium acetate or sodium borate, preferably 10-250 mM, and more preferably 50 mM Tris-HCl as buffer. The final concentration of chondroitin sulfate C is at the range of 0.2-20 mg/ml. Chondroitinase solution and the chondroitin sulfate C solution are pre-incubated in 37° C. and mixed in a ratio of 1:50. The reaction mixture is further incubated for 20 min for allowing the enzymatic reaction proceeding. The absorbance of the reaction mixture is continuously monitored by spectrophotometer and the rate of the reaction is calculated by multiplying the slope of the absorbance-time curve with millimolar extinct coefficient of the reaction product at 232 nm (which is reported to be 5.5.). […]
2 mg/ml Chondroitin sulfate C solution was prepared by dissolving in buffer at pH 8.0 Tris-HCl (50 mM). […] The reaction mixture was further incubated at 37° C. for 20 min in spectrophotometer and the absorbance at 232 nm was continuously monitored. […] In FIG. 3, the absorbance of the solution without the presence of heparin at 232 nm increased linearly.

The target in assay [5] is T1, chondroitinase ABC. Description: Time profile of inhibition of chondroitinase ABC by heparin, absorbance at 232 nm. The assay is classed as biochemical. The procedure: In one embodiment, the inhibition of chondroitinase ABC by heparin could be at a particular time point during the enzymatic treatment, so that the enzymatic action can be precisely terminated. […] The enzymatic reaction in the mixture, which is the digestion of the chondroitin sulfate polymer into unsaturated oligosaccharide or disaccharide, can be monitored at 232 nm with incubation in 37° C. The reaction can be incubated for 5 hours and at 1.5 and 2.5 hours, with suitable concentrations of heparin including, but not limited to, 0.1-0.01 times the chondroitin sulfate, being introduced for evaluating the time response of the inhibition effect. Detailed experimental results are illustrated in example 5.
Chondroitin sulfate and chondroitinase ABC were introduced into 50 mM Tris HCl buffered solution (pH 7.6), to a final concentration of 1 mg/ml and 0.001 U/ml. […] At time of 0 hour, 1.5 hour, and 2.5 hour, 0.01 mg/ml heparin was introduced into the reaction mixture separately into 3 reaction mixture, where the remaining reaction mixture was sampled and monitored at the same time interval as the 3 reaction mixture with heparin introduction. The progress of the enzymatic reaction was monitored by measuring the absorbance at 232 nm of a sample taken from the reaction mixture every 30 min.

For assay [6], the target named is T1, chondroitinase ABC. Description: Electrophoretic mobility shift assay (EMSA) of chondroitinase ABC and heparin. The assay is classed as binding. The note with it: 20 μg chondroitinase ABC with 3.8 μg heparin (about 0.2 nmol each), room temperature 30 min. An excerpt: Further experiments can be applied to show the direct interaction, or more precisely binding, between GAG and chondroitinase. One of the experimental methods that can show the direct interaction between non-substrate GAG and chondroitinase (without introducing other molecule, like the substrate) is the electrophoretic mobility shift (EMSA) assay.
The principle of EMSA is that the mobility of biomolecules under electrophoresis is affected by the size and charge of the biomolecule. […] The overall size will increase and the mobility is usually changed in the gel electrophoresis. In other words, a shift in the position of the biomolecule in the gel will be observed if there is binding between the biomolecules. For studying the interaction between chondroitinase and non-substrate GAG, EMSA is conducted as described. 5-30 μg chondroitinase is mixed with (a) 0.5 molar ratio, (b) equal molar, and (c) 2 folds molar excess of GAG, and incubated at room temperature for at least 20 min, and more preferred 30 min. These mixtures are loaded onto native polyacrylamide gel and subjected to electrophoresis for 2.5 hours at 100 V. Two identical gels are prepared but stained with different staining solution (Alcian blue for GAG, and Coomassie blue for chondroitinase). […]
(A gel shift assay detects complexes by their altered migration in electrophoresis.)

Turning to Chondroitinase ABC, the “DHI, without heparin” value in assay [1] (0.05 U chondroitinase ABC only) worked out at 0.082; in assay [1] (0.15 U chondroitinase ABC only), 0.071; in assay [1] (3 weeks after injection, 0.05 U chondroitinase ABC only), 0.044; in assay [1] (3 weeks after injection, 0.15 U chondroitinase ABC only), 0.048. In addition, the “effect on DHI” value in assay [2] is on record as “significantly reduction of DHI”. The “absorbance at 232 nm of solution (disc dissolution)” value in assay [3] (1U/ml chondroitinase ABC without heparin, compared with PBS and sodium lactate) was “the absorbance increased remarkably”.
Take heparin: the “DHI, with heparin” value was 0.081 in assay [1] (0 day after injection, 0.05 U chondroitinase ABC); 0.085 in assay [1] (0 day after injection, 0.15 U chondroitinase ABC); 0.082 in assay [1] (3 weeks after injection, 0.05 U chondroitinase ABC); 0.066 in assay [1] (3 weeks after injection, 0.15 U chondroitinase ABC). Also, the “effect on DHI reduction caused by chondroitinase ABC” value is “significantly inhibited the DHI reduction” in assay [1] (0.05 U chondroitinase ABC) and “inhibited the DHI reduction but the inhibitory effect was not as significant as at the lower concentration” in assay [1] (0.15 U chondroitinase ABC). The “inhibition of enzymatic reaction of chondroitinase (absorbance at 232 nm)” value in assay [4] is “completely inhibited”. The “rate of increase in absorbance at 232 nm of the reaction mixture” value in assay [5] (0.01 mg/ml heparin introduced at 0, 1.5 or 2.5 hour, 1 mg/ml chondroitin sulfate, 0.001 U/ml chondroitinase ABC, 37° C., 5 hours) was “significantly reduced”. In assay [5] (0.01 mg/ml heparin, throughout the 5 hours reaction period), the “persistence of inhibition of the enzymatic reaction” value was “remains stable and constant”. Also, the “absorbance at 232 nm of solution (disc dissolution)” value in assay [3] (1U/ml chondroitinase ABC and 1 mg/ml heparin in PBS with 10 mM sodium lactate, 0, 5, 20 hours) is recorded as “significantly reduced the absorbance”. The “binding to chondroitinase ABC (EMSA, Alcian Blue stain)” value in assay [6] is “binds tightly to the enzyme”.
